Measurements taken from patent publication US20090131356A1, “miR-15, miR-26, miR-31, miR-145, miR-147, miR-188, miR-215, miR-216, miR-331, mmu-miR-292-3P REGULATED GENES AND PATHWAYS AS TARGETS FOR THERAPEUTIC INTERVENTION” (ASURAGEN, INC., priority 2006, published 2009).

Key:
[1] = test system: HCC2935 cells; experiment: Alamar Blue proliferation assay, HCC2935; type: cell-based, human; conditions: 30 nM, normalized to negative control miRNA (100% proliferation)
Text: The inventors assessed the therapeutic effect of hsa-miR-147 for lung cancer by using 12 individual lung cancer cell lines. To measure cellular proliferation of lung cancer cells, the following parental non-small cell lung cancer (NSCLC) cells were used: cells derived from lung adenocarcinoma (A549, H1299, H522, H838, Calu-3, HCC827, HCC2935), cells derived from lung squamous cell carcinoma (H520, H226), cells derived from lung adenosquamous cell carcinoma (H596), cells derived from lung bronchioalveolar carcinoma (H1650), and cells derived from lung large cell carcinoma (H460). In addition to these parental cell lines, highly metastatic NSCLC cells were used that stably express the firefly luciferase gene: A549-luc, H460-luc, HCC827-luc, H1650-luc, H441-luc. Unlike the parental cell lines, these metastatic cells readily migrate to distant sites of the test animal and form metastases upon subcutaneous, orthotopic, or intravenous injection. Synthetic hsa-miR-147 or negative control miRNA was delivered via lipid-based transfection into A549, H1299, H522, H838, Calu-3, HCC827, HCC2935, H520, H596, H1650, H460, A549-luc, H460-luc, HCC827-luc, H1650-luc, H441-luc cells and via electroporation into H226 cells. […]

[2] = test system: RWPE2 cells; experiment: Alamar Blue proliferation assay, RWPE2; type: cell-based, human; conditions: 30 nM, normalized to negative control miRNA (100% proliferation)
Text: (§1) The inventors assessed the therapeutic effect of hsa-miR-147 for prostate cancer by using 4 individual human prostate cancer cell lines. To measure cellular proliferation of prostate cancer cells, the following prostate cancer cell lines were used: PPC-1 and PC3, derived from a bone metastasis; Du145, derived from a brain metastasis; RWPE2, derived from prostate cells immortalized by human papillomavirus 18 and transformed by the K-RAS oncogene (Bello et al., 1997; Stone et al., 1978; Brothman et al., 1991). PC3, PPC-1, and Du145 cells lack expression of the prostate-specific antigen (PSA) and are independent of androgen receptor (AR) signaling. In contrast, RWPE2 cells test positive for PSA and AR.
(§2) PPC-1, Du145 and RWPE2 cells were transfected with synthetic hsa-miR-147 (Pre-miR™-hsa-miR-147, Ambion cat. no. AM17100) or negative control miRNA (NC; Pre-miR™ microRNA Precursor Molecule-Negative Control #2; Ambion cat. no. AM17111) in a 96-well format using a lipid-based transfection reagent. […] Proliferation was assessed 4-7 days post-transfection using Alamar Blue™ (Invitrogen) following the manufacturer's instructions. […] Fluorescent light units (FLU) were measured after 3 hours, normalized to the control, and plotted as percent change in proliferation. […]

[3] = test system: human H460 lung cancer xenografts; experiment: Established H460 lung tumor xenograft, intratumoral injection of lipid-formulated miRNA; type: in vivo, NOD/SCID mice; conditions: intratumoral 6.25 μg on days 11, 14 and 17, siPORT amine formulation; day 19
Text: Delivery of hsa-miR-147 into human lung cancer cells prior to implantation into the animal inhibited the formation of lung tumor xenografts. […] To explore this possibility, 3×10^6 human H460 non-small cell lung cancer cells were mixed with BD Matrigel™, (BD Biosciences; San Jose, Calif., USA; cat. no. 356237) in a 1:1 ratio and subcutaneously injected into the lower back of each of 23 NOD/SCID mice (Charles River Laboratories, Inc.; Wilmington, Mass., USA). Once animals developed palpable tumors (day 11 post xenograft implantation), each animal in a group of six received intratumoral injections of 6.25 μg hsa-miR-147 (Dharmacon, Lafayette, Colo.) formulated with the lipid-based siPORT™ amine delivery agent (Ambion, Austin, Tex.; cat. no. AM4502) on days 11, 14 and 17. A control group of six animals each received intratumoral injections of 6.25 μg negative control miRNA (NC; Dharmacon, Lafayette, Colo.), following the same injection schedule that was used for hsa-miR-147. Given an average mouse weight of 20 g, this dose equals 0.3125 mg/kg. […] Caliper measurements of tumors were taken every 1-2 days, and tumor volumes were calculated using the formula, Volume=length×width×width/2, in which the length is greater than the width.

[4] = test system: PPC-1 cells; experiment: Alamar Blue proliferation assay, PPC-1; type: cell-based, human; conditions: 30 nM, normalized to negative control miRNA (100% proliferation)
Text: as §1, §2

With “hsa-miR-147: Synthetic pre-miR-147 (Ambion AM17100; Dharmacon in vivo); mature sequence GUGUGUGGAAAUGCUUCUGC, MIMAT0000251, SEQ ID NO:114 (synthetic pre-miR (Ambion/Dharmacon), chemistry not given here; listed as Homo sapiens)” the “% proliferation” value [1] was 60.35%, the “% proliferation” value [2] was 79.08% and the average tumor size [3] was 260 mm^3. For the same substance, the “% proliferation” value [4] was 76.98%.
